Test results taken from patent US20100226994A1, “GRANULE, TABLET AND METHODS FOR PRODUCING THE SAME” (priority 2007, published 2010).

Experiment: Heat storage of granule or raw substance on a tray at 70° C., residual ratio of functional substance
Assay type: physicochemical

residual ratio of lipoic acid (on a tray at 70° C. for 24 hours) | residual ratio of vitamin E (on a tray at 70° C. for 72 hours) | Molecule
40.5% | – | O=C(O)CCCCC1CCSS1 (centres unmarked) [Comparative Example 8, Lipoic acid]
– | 96.5% | Vitamin E [Comparative Example 10]
